Patent US11542249B2, “BTK inhibitor compounds” (Eli Lilly and Company, priority 2017, dated 2023)

Key:
[1] = system: activated B cells in human whole blood (CD69); assay: Human Whole Blood CD69 in vitro assay (B cell activation, flow cytometry); format: cell-based; settings: IC50 value ± standard deviation, anti-human-IgD-Dextran stimulation, read-out: HWB CD69 Rel IC50
Description: Human Whole Blood CD69 in Vitro Assay:
The HWB CD69 assay measures activated B cells in human whole blood using a flow cytometer. Compounds are diluted and added to assay plates with a Labcyte ECHO® 555 liquid handler. Compounds are tested in 10 point dose response curves (20 μM-0.001 μM) in 96-well v-bottom plates with a maximum DMSO concentration of 0.2%. Fresh blood from individual healthy volunteer is mixed with HEPES (0.5 ml HEPES added per 10 ml blood) and 100 μl/well is added to compound plates. The plates are sealed and incubated in a 37° C. incubator for 3 h. Anti-human-IgD-Dextran is added to each well to give a final concentration of 100 ng/ml, mixed, and put back into the incubator. After 1 h, the cells are washed with cold FACS buffer and transferred to a deep well plate. The cells are incubated with anti-human CD69-PE (BIOLEGEND®, clone FN50) and anti-human CD19-APC (BIOLEGEND®, clone HIB19) antibodies on ice for 20 min. The cells are washed and incubated in eBioscience™ 1-step Fix/Lyse solution (10×) at RT to lyse the red blood cells and fix the other cells. The white cells are pelleted and washed in FACS buffer and then brought up in read buffer. The suspended cells are transferred to 96-well round bottom plates and read on an IntelliCyt iQue® Screener Plus flow cytometer. From the SSC (Side Scatter Channel) vs FSC (Forward Scatter Channel) graph, the lymphocytes are identified. Lymphocytes are identified with gated on positive CD19 marker for quantify CD69 (a marker of activated B lymphocytes) MFI (mean fluorescent intensity/cell). The signal ratio is converted to percent inhibition using the following equation: % Inhibition=100−[(Test Compound−Median Min)/(Median Max−Median Min)×100].
(§1) The following Table 1 and Table 2 describes the relative IC50 data vs. human BTK, human EGFR, and human whole blood CD69.

human BTK = human BTK (Homo sapiens (Human), UniProt Q06187); assay: BTK LANTHASCREEN Eu Kinase Binding Assay; settings: IC50 value ± standard deviation; full-length His-labeled BTK, kinase tracer 236; read-out: hBTK Rel IC50
Description: (§2) BTK and EGFR in Vitro Assays:
(§3) The BTK and EGFR biochemical assays utilize LANTHASCREEN® Eu Kinase Binding Assays from Thermo Fisher Scientific, measuring the binding of the kinase with a […] tracer. The assay buffer consists of 50 mM HEPES pH 7.5, 0.01% BRU™-35, 10 mM MgCl2, 1 mM EGTA, and 1 mM DTT. The test compounds are diluted and added to the assay plate with a Labcyte ECHO® 555 liquid handler. The compounds are tested in 10 point dose response curves (100 μM-0.005 μM) with a maximum DMSO concentration of 1%. The assays are performed in 20 μL in low-volume 384-well white proxiplates. For the BTK assay, the concentration of full-length His-labeled BTK in the assay is 5 nM, the Eu-anti-His antibody is 2 nM, and the kinase tracer 236 is 60 nM. For the EGFR assay, the concentration of truncated (amino acids 668-1210) GST-labeled EGFR is 5 nM, the Eu-anti-GST antibody is 2 nM, and the kinase tracer 199 is 10 nM. The components of the assay (compound, enzyme/antibody, tracer) are assembled and incubated for 30 min prior to being read on a Perkin-Elmer EnVision with excitation at 340 nm, tracer emission at 665 nm, and antibody emission at 615 nm. The signal ratio is converted to percent inhibition using the following equation: % Inhibition=100−[(Test Compound−Median Minimum)/(Median Maximum−Median Minimum)×100].
as §1

human EGFR = human EGFR (Homo sapiens (Human), UniProt P00533); assay: EGFR LANTHASCREEN Eu Kinase Binding Assay; settings: IC50 value ± standard deviation; truncated GST-labeled EGFR, kinase tracer 199; read-out: hEGFR Rel IC50
Description: as §2, §3

human BTK, sequence (Q06187 whole entry): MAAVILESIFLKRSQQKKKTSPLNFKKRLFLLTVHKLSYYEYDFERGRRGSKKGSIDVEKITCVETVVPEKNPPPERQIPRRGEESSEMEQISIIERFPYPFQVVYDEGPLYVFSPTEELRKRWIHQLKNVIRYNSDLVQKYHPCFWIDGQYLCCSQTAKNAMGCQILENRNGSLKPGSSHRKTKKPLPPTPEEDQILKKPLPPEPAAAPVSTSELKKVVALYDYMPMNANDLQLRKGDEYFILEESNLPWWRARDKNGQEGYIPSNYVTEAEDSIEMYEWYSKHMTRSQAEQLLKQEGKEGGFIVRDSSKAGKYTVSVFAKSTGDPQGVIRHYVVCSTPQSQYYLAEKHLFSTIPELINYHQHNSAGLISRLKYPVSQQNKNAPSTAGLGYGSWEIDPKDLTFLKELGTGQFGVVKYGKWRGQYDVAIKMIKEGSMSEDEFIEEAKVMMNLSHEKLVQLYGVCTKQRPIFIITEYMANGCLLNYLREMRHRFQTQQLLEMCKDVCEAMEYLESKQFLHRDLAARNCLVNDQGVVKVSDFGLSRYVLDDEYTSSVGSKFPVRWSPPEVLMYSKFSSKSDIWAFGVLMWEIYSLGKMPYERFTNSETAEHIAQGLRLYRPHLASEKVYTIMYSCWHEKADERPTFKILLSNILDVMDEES
human EGFR, sequence (P00533 668-1210): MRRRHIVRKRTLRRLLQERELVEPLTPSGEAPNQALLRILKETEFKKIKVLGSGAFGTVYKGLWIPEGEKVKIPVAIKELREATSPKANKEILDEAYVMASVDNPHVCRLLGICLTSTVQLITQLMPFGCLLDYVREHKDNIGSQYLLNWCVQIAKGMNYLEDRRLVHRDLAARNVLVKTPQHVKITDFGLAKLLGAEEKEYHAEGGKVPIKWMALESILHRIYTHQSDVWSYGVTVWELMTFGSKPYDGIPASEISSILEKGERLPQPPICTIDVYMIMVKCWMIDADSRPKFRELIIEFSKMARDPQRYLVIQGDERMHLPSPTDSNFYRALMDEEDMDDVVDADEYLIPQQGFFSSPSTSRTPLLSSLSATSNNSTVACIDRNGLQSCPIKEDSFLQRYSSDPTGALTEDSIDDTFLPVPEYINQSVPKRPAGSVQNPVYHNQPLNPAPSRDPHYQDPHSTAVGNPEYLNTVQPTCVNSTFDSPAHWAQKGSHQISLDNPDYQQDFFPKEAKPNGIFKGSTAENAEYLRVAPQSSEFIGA

## C=CC(=O)N1CC(Nc2cncc(-c3cnc(Oc4ccc(F)c(Cl)c4)nc3)c2)C1 [Example 13, 1-[3-[[5-[2-(3-chloro-4-fluoro-phenoxy)pyrimidin-5-yl]-3-pyridyl]amino]azetidin-1-yl]prop-2-en-1-one]
[1]
  IC50: 715 ± 93.5 nM
Human BTK
  IC50: 38.2 ± 16.9 nM
Human EGFR
  IC50: 450 ± 53.2 nM

## C#Cc1cccc(Oc2ncc(-c3cncc(NC4CN(C(=O)C=C)C4)c3)cn2)c1 [Example 14, 1-[3-[[5-[2-(3-ethynylphenoxy)pyrimidin-5-yl]-3-pyridyl]amino]azetidin-1-yl]prop-2-en-1-one]
[1]
  IC50: 299 ± 143 nM
Human BTK
  IC50: 17.8 ± 3.77 nM
Human EGFR
  IC50: 242 ± 231 nM

## C=CC(=O)N1CC[C@H](Nc2cncc(-c3cnc(Nc4cccc(Cl)c4)nc3)c2)C1 [Example 15]
[1]
  IC50: 219 ± 86 nM
Human BTK
  IC50: 6.01 ± 0.579 nM
Human EGFR
  IC50: 1370 ± 1210 nM

## C=CC(=O)N1CC(Nc2cncc(-c3cnc(Nc4cccc(C(F)(F)F)c4)nc3)c2)C1 [Example 18, 1-[3-[[5-[2-[3-(trifluoromethyl)anilino]pyrimidin-5-yl]-3-pyridyl]amino]azetidin-1-yl]prop-2-en-1-one]
[1]
  IC50: 71 ± 12.8 nM
Human BTK
  IC50: < 5 nM
Human EGFR
  IC50: 247 ± 99.3 nM

## C=CC(=O)N1CCC(Nc2cncc(-c3cnc(Nc4cccc(C)n4)nc3)c2)CC1 [Example 20, 1-[4-[[5-[2-[(6-methyl-2-pyridyl)amino]pyrimidin-5-yl]-3-pyridyl]amino]-1-piperidyl]prop-2-en-1-one]
[1]
  IC50: 208 ± 132 nM
Human BTK
  IC50: 16.9 ± 3.93 nM
Human EGFR
  IC50: 2220 ± 649 nM

## C=CC(=O)N1CCC(Nc2cncc(-c3cnc(Nc4cccc(C(F)(F)F)n4)nc3)c2)CC1 [Example 21, 1-[4-[[5-[2-[[6-(trifluoromethyl)-2-pyridyl]amino]pyrimidin-5-yl]-3-pyridyl]amino]-1-piperidyl]prop-2-en-1-one]
[1]
  IC50: 160 ± 38.2 nM
Human BTK
  IC50: 8.84 ± 1.21 nM
Human EGFR
  IC50: > 100000 nM

## C=CC(=O)N1CCC(Nc2cncc(-c3cnc(Nc4ccccn4)nc3)c2)CC1 [Example 22, 1-[4-[[5-[2-(2-pyridylamino)pyrimidin-5-yl]-3-pyridyl]amino]-1-piperidyl]prop-2-en-1-one]
[1]
  IC50: 227 ± 81.1 nM
Human BTK
  IC50: 31 ± 12.4 nM
Human EGFR
  IC50: 3390 ± 2070 nM

## CN(C)C/C=C/C(=O)N1CCC(Nc2cncc(-c3cnc(Nc4cccc(Cl)c4)nc3)c2)CC1 [Example 23, (E)-1-[4-[[5-[2-(3-chloroanilino)pyrimidin-5-yl]-3-pyridyl]amino]-1-piperidyl]-4-(dimethylamino)but-2-en-1-one]
[1]
  IC50: 475 ± 166 nM
Human BTK
  IC50: 24.1 ± 4.28 nM
Human EGFR
  IC50: 26500 ± 2880 nM

## C=CC(=O)N1CC(Nc2cncc(-c3cnc(Oc4cccc(F)c4)nc3)n2)C1 [Example 25, 1-[3-[[6-[2-(3-fluorophenoxy)pyrimidin-5-yl]pyrazin-2-yl]amino]azetidin-1-yl]prop-2-en-1-one]
[1]
  IC50: 306 ± 63.6 nM
Human BTK
  IC50: 19.3 ± 3.28 nM
Human EGFR
  IC50: 1580 ± 110 nM

## C=CC(=O)N1CC(Nc2cncc(-c3cnc(Oc4cccc(C(F)(F)F)c4)nc3)n2)C1 [Example 26, 1-[3-[[6-[2-[3-(trifluoromethyl)phenoxy]pyrimidin-5-yl]pyrazin-2-yl]amino]azetidin-1-yl]prop-2-en-1-one]
[1]
  IC50: 490 ± 255 nM
Human BTK
  IC50: 30.2 ± 4.32 nM
Human EGFR
  IC50: 4030 ± 1920 nM

## C=CC(=O)N1CC(Nc2cncc(-c3cnc(Oc4ccccc4)nc3)n2)C1 [Example 28, 1-[3-[[6-(2-phenoxypyrimidin-5-yl)pyrazin-2-yl]amino]azetidin-1-yl]prop-2-en-1-one]
[1]
  IC50: 742 ± 323 nM
Human BTK
  IC50: 42.9 ± 5.09 nM
Human EGFR
  IC50: 1470 ± 209 nM

## C=CC(=O)N1CC(C)(Nc2cncc(-c3cnc(Oc4cccc(Cl)c4)nc3)n2)C1 [Example 29, 1-[3-[[6-[2-(3-chlorophenoxy)pyrimidin-5-yl]pyrazin-2-yl]amino]-3-methyl-azetidin-1-yl]prop-2-en-1-one]
[1]
  IC50: 584 ± 372 nM
Human BTK
  IC50: 17.7 ± 1.35 nM
Human EGFR
  IC50: 3470 ± 911 nM

## C=CC(=O)N1CC(Nc2cncc(-c3cnc(Oc4cc(F)cc(F)c4)nc3)n2)C1 [Example 30, 1-[3-[[6-[2-(3,5-difluorophenoxy)pyrimidin-5-yl]pyrazin-2-yl]amino]azetidin-1-yl]prop-2-en-1-one]
[1]
  IC50: 815 ± 110 nM
Human BTK
  IC50: 43.2 ± 11.9 nM
Human EGFR
  IC50: 1080 ± 229 nM

## C=CC(=O)N1CC[C@H](Nc2cncc(-c3cnc(Nc4cccc(Cl)c4)nc3)n2)C1 [Example 34, 1-[(3S)-3-[[6-[2-(3-chloroanilino)pyrimidin-5-yl]pyrazin-2-yl]amino]pyrrolidin-1-yl]prop-2-en-1-one]
[1]
  IC50: 130 ± 44.7 nM
Human BTK
  IC50: 18.3 nM
Human EGFR
  IC50: 639 ± 256 nM

## C=CC(=O)N1CC(Nc2cncc(-c3cnc(Nc4ccc(F)c(Cl)c4)nc3)n2)C1 [Example 35, 1-[3-[[6-[2-(3-chloro-4-fluoro-anilino)pyrimidin-5-yl]pyrazin-2-yl]amino]azetidin-1-yl]prop-2-en-1-one]
[1]
  IC50: 107 ± 45.4 nM
Human BTK
  IC50: < 5 nM
Human EGFR
  IC50: 37.3 ± 26.1 nM

## C=CC(=O)N1CC[C@H](Nc2cncc(-c3cnc(Nc4ccccc4OC(F)(F)F)nc3)n2)C1 [Example 36, 1-[(3S)-3-[[6-[2-[2-(trifluoromethoxy)anilino]pyrimidin-5-yl]pyrazin-2-yl]amino]pyrrolidin-1-yl]prop-2-en-1-one]
[1]
  IC50: 161 ± 71 nM
Human BTK
  IC50: 6.72 ± 1.7 nM
Human EGFR
  IC50: 15200 ± 654 nM

## C=CC(=O)N1CC(Nc2cncc(-c3cnc(Nc4cccc(OC(F)(F)F)c4)nc3)n2)C1 [Example 37, 1-[3-[[6-[2-[3-(trifluoromethoxy)anilino]pyrimidin-5-yl]pyrazin-2-yl]amino]azetidin-1-yl]prop-2-en-1-one]
[1]
  IC50: 136 ± 66.8 nM
Human BTK
  IC50: < 5 nM
Human EGFR
  IC50: 306 ± 33.8 nM

## C=CC(=O)N1CCC(Nc2cncc(-c3cnc(Oc4cccc(OC(F)F)c4)nc3)n2)CC1 [Example 38, 1-[4-[[6-[2-[3-(difluoromethoxy)phenoxy]pyrimidin-5-yl]pyrazin-2-yl]amino]-1-piperidyl]prop-2-en-1-one]
[1]
  IC50: 66.6 ± 19.9 nM
Human BTK
  IC50: 6.89 ± 0.835 nM
Human EGFR
  IC50: 908 ± 546 nM

## C=CC(=O)N1CC[C@H](Nc2cncc(-c3cnc(Nc4cccc(OC(F)F)c4)nc3)n2)C1 [Example 39, 1-[(3S)-3-[[6-[2-[3-(difluoromethoxy)anilino]pyrimidin-5-yl]pyrazin-2-yl]amino]pyrrolidin-1-yl]prop-2-en-1-one]
[1]
  IC50: 103 ± 60.6 nM
Human BTK
  IC50: 5.6 nM
Human EGFR
  IC50: 1460 ± 200 nM

## C=CC(=O)N1CC(Nc2cncc(-c3cnc(Nc4cccc(C)n4)nc3)n2)C1 [Example 40, 1-[3-[[6-[2-[(6-methyl-2-pyridyl)amino]pyrimidin-5-yl]pyrazin-2-yl]amino]azetidin-1-yl]prop-2-en-1-one]
[1]
  IC50: 144 ± 53.4 nM
Human BTK
  IC50: 5.58 ± 0.182 nM
Human EGFR
  IC50: 54.9 ± 15.4 nM

## C=CC(=O)N1CC(Nc2cncc(-c3cnc(Oc4ccc(Cl)cc4)nc3)n2)C1 [Example 41, 1-[3-[[6-[2-(4-chlorophenoxy)pyrimidin-5-yl]pyrazin-2-yl]amino]azetidin-1-yl]prop-2-en-1-one]
[1]
  IC50: 2160 ± 420 nM
Human BTK
  IC50: 96.8 ± 15.6 nM
Human EGFR
  IC50: 2110 ± 487 nM

## C=CC(=O)N1CC(Nc2cncc(-c3cnc(Oc4cccc(OC)c4)nc3)n2)C1 [Example 42, 1-[3-[[6-[2-(3-methoxyphenoxy)pyrimidin-5-yl]pyrazin-2-yl]amino]azetidin-1-yl]prop-2-en-1-one]
[1]
  IC50: 226 ± 53 nM
Human BTK
  IC50: 19.4 ± 1.67 nM
Human EGFR
  IC50: 2820 ± 492 nM

## C=CC(=O)N1CC(Nc2cncc(-c3cnc(Nc4ccccc4OC(F)(F)F)nc3)n2)C1 [Example 43, 1-[3-[[6-[2-[2-(trifluoromethoxy)anilino]pyrimidin-5-yl]pyrazin-2-yl]amino]azetidin-1-yl]prop-2-en-1-one]
[1]
  IC50: 105 ± 43 nM
Human BTK
  IC50: < 5 nM
Human EGFR
  IC50: 676 ± 23 nM
